Laboratory results taken from patent publication US4508663A, “Process for preparing thiosulfenamide derivatives of N-phosphonomethylglycinonitriles” (Monsanto Company, priority 1983, dated 1985).

Columns and labels:
Assay in all cases: post-emergence herbicidal activity, greenhouse
Format in all cases: in vivo
[1] = system: Cocklebur; details: 4 WAT
In short: (§1)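 Plants grown from seed or perennial propagules in greenhouse soil pans were sprayed at two to three weeks with compound solution or suspension containing about 0.4% emulsifier, at the stated application rates. Injury relative to untreated controls was scored at approximately two and four weeks after treatment on a post-emergence activity index.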

[2] = system: Johnsongrass; details: Table I, 4 WAT
In short: as §1

[3] = system: Quackgrass; details: Table I, 4 WAT
In short: as §1

[4] = system: Smartweed; details: 4 WAT
In short: as §1

[5] = system: Barnyardgrass; details: 4 WAT
In short: as §1

[6] = system: Rice; details: Table II, 4 WAT
In short: as §1

[7] = system: Canada Thistle; details: Table I, 4 WAT
In short: as §1

[8] = system: Hemp Sesbania; details: Table II, 4 WAT
In short: as §1

[9] = system: Soybean; details: Table II, 4 WAT
In short: as §1

[10] = system: Yellow Nutsedge; details: Table I, 4 WAT
In short: as §1

[11] = system: Sorghum; details: Table II, 4 WAT
In short: as §1

[12] = system: Sugar Beet; details: Table II, 4 WAT
In short: as §1

[13] = system: Velvetleaf; details: 4 WAT
In short: as §1

[14] = system: Wild Buckwheat; details: Table II, 4 WAT
In short: as §1

[15] = system: Panicum Spp; details: Table II, 4 WAT
In short: as §1

[16] = system: Morningglory; details: 4 WAT
In short: as §1

[17] = system: Wheat; details: Table II, 4 WAT
In short: as §1

[18] = system: Downy Brome; details: 4 WAT
In short: as §1

[19] = system: Crabgrass; details: Table II, 4 WAT
In short: as §1

[20] = system: Lambsquarters; details: 4 WAT
In short: as §1

Compound: N#CCN(CP(=O)(Oc1ccccc1)Oc1ccccc1)SCl [I]
- post-emergence herbicidal activity index ([1]; Table I, 5.6 kg/h): 3 (75-99% control)
- post-emergence herbicidal activity index ([1]; Table I, 11.2 kg/h): 2 (50-74% control)
- post-emergence herbicidal activity index ([1]; Table II, 0.28 kg/h): 2 (50-74% control)
- post-emergence herbicidal activity index ([1]; Table II, 1.12 kg/h): 2 (50-74% control)
- post-emergence herbicidal activity index ([1]; Table II, 5.6 kg/h): 2 (50-74% control)
- post-emergence herbicidal activity index ([2]; 5.6 kg/h): 1 (25-49% control)
- post-emergence herbicidal activity index ([2]; 11.2 kg/h): 1 (25-49% control)
- post-emergence herbicidal activity index ([3]; 5.6 kg/h): 0 (0-24% control)
- post-emergence herbicidal activity index ([3]; 11.2 kg/h): 1 (25-49% control)
- post-emergence herbicidal activity index ([4]; Table I, 5.6 kg/h): 0 (0-24% control)
- post-emergence herbicidal activity index ([4]; Table I, 11.2 kg/h): 2 (50-74% control)
- post-emergence herbicidal activity index ([4]; Table II, 0.28 kg/h): 1 (25-49% control)
- post-emergence herbicidal activity index ([4]; Table II, 1.12 kg/h): 0 (0-24% control)
- post-emergence herbicidal activity index ([5]; Table I, 5.6 kg/h): 1 (25-49% control)
- post-emergence herbicidal activity index ([5]; Table I, 11.2 kg/h): 2 (50-74% control)
- post-emergence herbicidal activity index ([5]; Table II, 0.28 kg/h): 0 (0-24% control)
- post-emergence herbicidal activity index ([5]; Table II, 1.12 kg/h): 1 (25-49% control)
- post-emergence herbicidal activity index ([5]; Table II, 5.6 kg/h): 2 (50-74% control)
- post-emergence herbicidal activity index ([6]; 0.28 kg/h): 0 (0-24% control)
- post-emergence herbicidal activity index ([6]; 1.12 kg/h): 0 (0-24% control)
- post-emergence herbicidal activity index ([6]; 5.6 kg/h): 1 (25-49% control)
- post-emergence herbicidal activity index ([7]; 5.6 kg/h): 1 (25-49% control)
- post-emergence herbicidal activity index ([7]; 11.2 kg/h): 2 (50-74% control)
- post-emergence herbicidal activity index ([8]; 0.28 kg/h): 0 (0-24% control)
- post-emergence herbicidal activity index ([8]; 1.12 kg/h): 0 (0-24% control)
- post-emergence herbicidal activity index ([8]; 5.6 kg/h): 2 (50-74% control)
- post-emergence herbicidal activity index ([9]; 0.28 kg/h): 1 (25-49% control)
- post-emergence herbicidal activity index ([9]; 1.12 kg/h): 1 (25-49% control)
- post-emergence herbicidal activity index ([9]; 5.6 kg/h): 2 (50-74% control)
- post-emergence herbicidal activity index ([10]; 5.6 kg/h): 2 (50-74% control)
- post-emergence herbicidal activity index ([10]; 11.2 kg/h): 2 (50-74% control)
- post-emergence herbicidal activity index ([11]; 0.28 kg/h): 1 (25-49% control)
- post-emergence herbicidal activity index ([11]; 1.12 kg/h): 2 (50-74% control)
- post-emergence herbicidal activity index ([11]; 5.6 kg/h): 3 (75-99% control)
- post-emergence herbicidal activity index ([12]; 0.28 kg/h): 0 (0-24% control)
- post-emergence herbicidal activity index ([12]; 1.12 kg/h): 0 (0-24% control)
- post-emergence herbicidal activity index ([12]; 5.6 kg/h): 0 (0-24% control)
- post-emergence herbicidal activity index ([13]; Table I, 5.6 kg/h): 2 (50-74% control)
- post-emergence herbicidal activity index ([13]; Table I, 11.2 kg/h): 2 (50-74% control)
- post-emergence herbicidal activity index ([13]; Table II, 0.28 kg/h): 1 (25-49% control)
- post-emergence herbicidal activity index ([13]; Table II, 1.12 kg/h): 1 (25-49% control)
- post-emergence herbicidal activity index ([13]; Table II, 5.6 kg/h): 2 (50-74% control)
- post-emergence herbicidal activity index ([14]; 0.28 kg/h): 0 (0-24% control)
- post-emergence herbicidal activity index ([14]; 1.12 kg/h): 0 (0-24% control)
- post-emergence herbicidal activity index ([14]; 5.6 kg/h): 2 (50-74% control)
- post-emergence herbicidal activity index ([15]; 0.28 kg/h): 0 (0-24% control)
- post-emergence herbicidal activity index ([15]; 1.12 kg/h): 0 (0-24% control)
- post-emergence herbicidal activity index ([15]; 5.6 kg/h): 1 (25-49% control)
- post-emergence herbicidal activity index ([16]; Table I, 5.6 kg/h): 2 (50-74% control)
- post-emergence herbicidal activity index ([16]; Table I, 11.2 kg/h): 2 (50-74% control)
- post-emergence herbicidal activity index ([16]; Table II, 0.28 kg/h): 0 (0-24% control)
- post-emergence herbicidal activity index ([16]; Table II, 1.12 kg/h): 1 (25-49% control)
- post-emergence herbicidal activity index ([16]; Table II, 5.6 kg/h): 2 (50-74% control)
- post-emergence herbicidal activity index ([17]; 0.28 kg/h): 0 (0-24% control)
- post-emergence herbicidal activity index ([17]; 1.12 kg/h): 1 (25-49% control)
- post-emergence herbicidal activity index ([17]; 5.6 kg/h): 1 (25-49% control)
- post-emergence herbicidal activity index ([18]; Table I, 5.6 kg/h): 0 (0-24% control)
- post-emergence herbicidal activity index ([18]; Table I, 11.2 kg/h): 2 (50-74% control)
- post-emergence herbicidal activity index ([18]; Table II, 0.28 kg/h): 1 (25-49% control)
- post-emergence herbicidal activity index ([18]; Table II, 1.12 kg/h): 0 (0-24% control)
- post-emergence herbicidal activity index ([18]; Table II, 5.6 kg/h): 1 (25-49% control)
- post-emergence herbicidal activity index ([19]; 0.28 kg/h): 0 (0-24% control)
- post-emergence herbicidal activity index ([19]; 1.12 kg/h): 2 (50-74% control)
- post-emergence herbicidal activity index ([20]; Table I, 5.6 kg/h): 4 (100% control)
- post-emergence herbicidal activity index ([20]; Table I, 11.2 kg/h): 3 (75-99% control)
- post-emergence herbicidal activity index ([20]; Table II, 0.28 kg/h): 2 (50-74% control)
- post-emergence herbicidal activity index ([20]; Table II, 1.12 kg/h): 4 (100% control)
- post-emergence herbicidal activity index ([20]; Table II, 5.6 kg/h): 4 (100% control)
